Where a SMILES comes first, the peptide text is derived from it. Bridges are numbered along the chain shown (N, C = ends).
Columns and labels:
[1] = system: K562 cells; assay: NK cytotoxic activity, Cr51 release; format: cell-based; conditions: 50 μM
Procedure: The release of danger signals such as HSP70 and CRT has been reported to be involved in increasing the susceptibility of tumor cells toward cytotoxic activity of NK cells. Therefore, the effect of the peptide identified as SEQ ID NO: 1 on the susceptibility of tumor cells toward NK cytotoxic activity was evaluated. To do that, the classic target cells to NK activity, K562 cells, were employed. Target cells were labeled with Cr^51 (approximate specific activity: 100 μCi/μg) by incubation for 70 minutes at 37° C. Subsequently, target cells were washed three times with RPMI medium supplemented with 2% FBS and seeded in 96-well plates, at a target:effector ratio of 1:25. On the other hand, NK cells were isolated from peripheral blood mononuclear cells (PBMC) of healthy donors, by negative selection, using magnetic beads (Miltenyi Biotec). Thus, CD56+CD3− NK cells were obtained with more than 96% purity. The peptide identified as SEQ ID NO: 1 was added to the co-culture at 12.5; 25 and 50 μM. After 4 hours of incubation, supernatant was collected for the measurement of Cr^51 release using a scintillation counter. The percentage of specific lysis was calculated as follows: […]
Target cells without coincubation with effector cells were employed as spontaneous lysis control. Target cells with the peptide identified as SEQ ID NO: 1 constitute the toxicity control of the peptide.

[2] = system: OCI-AML3 and HL-60 tumor cells; conditions: read-out: IC50 dose
[3] = system: RagOT-I cells / dendritic cells matured with treated 3LL cells; assay: In vitro activation of OT-I CD8+ T cells by dendritic cells, IFN-γ ELISA; format: cell-based, mouse; conditions: versus negative control, CX4945 and Tat peptide
Procedure: Additionally, the ability of activating CD8+ T cells in vitro by these dendritic cells matured with peptide-treated 3LL cells was evaluated. For this purpose, dendritic cells previously co-incubated with tumor cells, under the conditions described above, were washed and loaded with the […] peptide from OVA, MHC class I restricted, at different concentrations (0, 10, 30 and 100 pg/mL) during three hours. After that time, they were washed again and co-incubated with RagOT-I cells in a 1:1 ratio for 48 hours. IFN-γ production was finally quantified by ELISA. RagOT-I cells co-incubated with dendritic cells previously incubated with untreated 3LL cells constituted the negative control of experiment.

[4] = system: L1210 cells; assay: Tumor microenvironment in DBA/2 mice: serum cytokines and intratumoral cell populations; format: in vivo; conditions: for modulation in cytokine levels (IL12p70, TNF-α, IL-6, IL-10): Tat 20 mg/kg intratumoral, DOX 10 mM intratumoral, CX4945 75 mg/kg oral twice a day, five days; for intratumoral Foxp3+ T cell levels: peptide 20 mg/kg, DOX 10 mM, Tat 20 mg/kg, CX4945 75 mg/kg oral
Procedure: To study whether the peptide identified as SEQ ID NO: 1 was capable of modulating the tumor microenvironment, female DBA/2 mice, 6-8 weeks old, and between 17-19 grams were inoculated with 0.5×10^6 L1210 cells, subcutaneously, into right flank (inguinal inoculation). Seven days after tumor challenge, 42 mice with palpable and non-measurable tumor were selected, which were random assigned to six groups of seven animals each. […] DOX (10 mM) and Tat peptide (20 mg/kg), were administered intratumorally, in a final volume of 50 μL, a daily inoculation for five days. The compound CX4945 (75 mg/kg) was administered in 25 mM NaH2PO4 buffer, twice a day, orally, for five days. Seven days after the end of the treatment, the mice were euthanized to obtain the tumors (day 18 of the procedure). Before sacrificing the mice, blood samples were obtained for the cytokines (IL-6, IL-10, IL-12p70, TNF-α) detection by ELISA. Tumors were cut into small pieces and transferred to gentleMACS tubes with RPMI medium, supplemented with an enzyme cocktail from Tumor Dissociation kit (Miltenyi Biotech, Germany). Tumor dissociation was performed using the gentleMACS™ Dissociator kit and a tumor dissociation kit (Miltenyi Biotech, Germany). The digested suspension was filtered, centrifuged and labeled with specific antibodies against CD8, CD4, Foxp3, CD11c, CD86 and CD40.

[5] = system: 3LL-OVA cells; assay: Cellular immune response, IFN-γ ELISPOT after inoculation of treated cells; format: in vivo, C57/BL6 mice; conditions: 3LL-OVA cells treated with 40 μM peptide 3 hours, 5 μM CX4945 or 40 μM Tat 3 hours; lymph node cells after 5 days
[6] = system: PDL1 in H460 cells; assay: PDL1 levels by flow cytometry; format: cell-based; conditions: 30 μM peptide, 5 μM CX4945 or 30 μM Tat peptide, 24 hours
Procedure: (§1) Immune checkpoints are currently an important target in cancer immunotherapy, due to their immunosuppressive role during the course of this disease. Taking this into account, effect of the peptide identified as SEQ ID NO: 1 on modulation of PDL1 levels in two non-small cell lung cancer cell lines: […], was evaluated. For that, 5×10^4 cells were seeded in 24-well plates. The day after, cells were treated with 30 μM peptide identified as SEQ ID NO: 1; 5 μM CX4945 or 30 μM Tat peptide, for 24 hours. After treatment, cells were collected, staining with an anti-PDL1 antibody and analyzed by flow cytometry.

[7] = system: PDL1 in A549 cells; assay: PDL1 levels by flow cytometry; format: cell-based; conditions: 30 μM peptide, 5 μM CX4945 or 30 μM Tat peptide, 24 hours
Procedure: as §1

[8] = system: Lewis Lung Carcinoma cells; assay: Anti-PDL1 therapy in a murine model of lung cancer; format: in vivo, C57/BL6 mice
From the text: Taking into account the results obtained in the in vitro test, it was decided to evaluate whether the use of the peptide identified as SEQ ID NO: 1 improved the antitumor efficacy of anti-PDL1 therapy in a murine model of lung cancer. For that, 2×10^5 Lewis Lung Carcinoma cells were subcutaneously implanted (day 0) in 6-8 weeks old C57/BL6 female mice with 17-19 grams of body weight. Nine days after the tumor challenge, 42 animals with 40 mm^3 tumors were randomized into six groups with seven mice each. CX4945 (75 mg/kg) was orally administered in 25 mM NaH2PO4 buffer twice daily. 40 mg/kg of the peptide identified as SEQ ID NO: 1 and 100 μg anti-PDL1 antibody (clone 10F.9G2, isotype rat IgG2b kappa) were intraperitoneally applied. Tumor volume and body weight were determined 3 times a week for 40 days. Tumor volume was measured and calculated as described in Example 7.

[9] = system: L1210 cells; assay: Vaccination with treated tumor cells, then challenge with live cells; format: in vivo, DBA/2 mice; conditions: vaccinated with cells treated with 5 μM CX4945 for 24 hours
Procedure: In order to explore whether the cell death induced by the peptide identified as SEQ ID NO: 1 had any immunomodulatory effect, a vaccination schedule was performed in mice with tumor cells previously treated with the peptide identified as SEQ ID NO: 1. For this purpose, 1×10^6 L1210 cells treated in vitro with 40 μM of the peptide identified as SEQ ID NO: 1, or time-matched untreated cells during 3 hours were subcutaneously injected in 0.1 mL in the inguinal area into right flank of 6-8 weeks female DBA/2 mice. After seven days, 1×10^6 live L1210 cells were inoculated on opposite flank, and tumor growth and volume were evaluated until day 45. Tumors were measured with Vernier calipers, three times a week, tumor volume was estimated using the formula: Volume=width^2 (mm)×length/2 (mm). As a positive control, cells treated with 15 μM DOX for 24 hours were used for vaccination. A group vaccinated with 5 μM CX4945-treated cells for 24 hours was also included. In total 4 groups were formed of 10 mice each group.

[10] = system: OCI-AML3 cells; assay: Phagocytosis of treated tumor cells by M1 and M2 macrophages; format: cell-based; conditions: peptide 40 μM and 10 μM 5 hours, CX4945 5 μM 24 hours, Tat 40 μM 5 hours
Procedure: (§2) Treatment with the peptide identified as SEQ ID NO: 1, as described in examples 2 and 3, is capable of increasing “eat me” signals and decreasing “don't eat me” signals. Therefore, it fostered to evaluate whether the treatment with the peptide identified as SEQ ID NO: 1 facilitate phagocytosis of tumor cells by macrophages, and whether this is performed by M1 or M2 macrophages. For that purpose, HL-60 and OCI-AML3 leukemia tumor cell lines were previously stained with 0.5 μM CFSE and treated with 10 or 40 μM of the peptide identified as SEQ ID NO: 1, for five hours, 5 μM CX4945 for 24 hours or 40 μM Tat during 5 hours. Subsequently, cells were washed and co-cultured with each type of M1 and M2 macrophages, at a 1:1 ratio for three hours. Different types of macrophages were obtained from PBMC of healthy donors by Ficoll™ gradient. Monocytes were purified by positive selection, using CD14 beads with an MS column (Miltenyi Biotech, Germany), obtaining 96% purity. Monocytes were seeded at 0.25×10^6 cells/mL/well, in 12-wells plates and were induced with 100 ng/mL of GM-CSF, for seven days, and with 50 ng/mL of IFN-γ for last 24 hours, to obtain M1 macrophages. M2 macrophages were induced with 50 ng/mL of M-CSF for seven days and 100 ng/mL of IL-10 for last 24 hours. […]

[11] = system: HL-60 cells; assay: as above; format: cell-based; conditions: peptide 40 μM and 10 μM 5 hours, CX4945 5 μM 24 hours, Tat 40 μM 5 hours
Procedure: as §2

Row | SMILES | toxicity to target cells [1] | IC50 [2] [µM] | IFN-γ production by CD8+ OT-I cells [3] | modulation in cytokine levels (IL12p70, TNF-α, IL-6, IL-10) [4] | intratumoral Foxp3+ T cell levels [4] | response of IFN-γ-secreting effector cells (ELISPOT) against OVA and OVA class I peptide [5] | % PDL1+ cells [6] [%] | IFM [6] | PDL1 expression ([6]; in words) | % PDL1+ cells [7] [%] | IFM [7] | PDL1 expression ([7]; in words) | tumor volume, combined with anti-PDL1 antibody ([8]; as alone, plus 100 μg anti-PDL1 antibody intraperitoneal, days 9, 12, 15, 18) | tumor progression (tumor volume), alone ([8]; peptide 40 mg/kg intraperitoneal or CX4945 75 mg/kg oral twice daily, days 9-13) | vaccine effect of treated cells [9] | susceptibility to be phagocytosed by M1 macrophages [10] | susceptibility to be phagocytosed by M1 macrophages [11]
1 | CSCC[C@@H]1NC(=O)[C@H](Cc2c[nH]c3ccccc23)NC(=O)[C@@H](NC(=O)[C@H](C)NC(=O)[C@H](CCC(N)=O)NC(=O)[C@@H]2CCCN2C(=O)[C@@H]2CCCN2C(=O)[C@H](CCCNC(=N)N)NC(=O)[C@H](CCCNC(=N)N)NC(=O)[C@H](CCCNC(=N)N)NC(=O)[C@H](CCC(N)=O)NC(=O)[C@H](CCCNC(=N)N)NC(=O)[C@H](CCCNC(=N)N)NC(=O)[C@H](CCCCN)NC(=O)[C@H](CCCCN)NC(=O)[C@H](CCCNC(=N)N)NC(=O)CN)CSSC[C@@H](C(=O)O)NC(=O)[C@H]([C@@H](C)O)NC(=O)CNC(=O)[C@H](CC(C)C)NC(=O)[C@H](Cc2c[nH]cn2)NC(=O)[C@H](CCCNC(=N)N)NC(=O)[C@@H]2CCCN2C(=O)[C@H](CO)NC1=O [peptide identified as SEQ ID NO: 1] (H-GRKKRRQRRRPPQACWMSPRHLGTC-OH; disulfide 15-25) | showed toxicity | 40 |  |  |  |  |  |  |  |  |  |  |  |  |  |  | 
2 | COc1cccc2c1C(=O)c1c(O)c3c(c(O)c1C2=O)C[C@@](O)(C(=O)CO)C[C@@H]3O[C@H]1C[C@H](N)[C@H](O)[C@H](C)O1 [DOX, doxorubicin] |  |  | significantly higher | not observed | significant decrease |  |  |  |  |  |  |  |  |  |  |  | 
3 | O=C(O)c1ccc2c(c1)nc(Nc1cccc(Cl)c1)c1ccncc12 [CX4945] |  |  |  | not observed | not observed | not able to generate this type of response | 25.2 | 15.23 | Differences were not observed | 29.6 | 16.2 | Differences were not observed | not observed | not observed | did not induce any vaccine effect | not observed | not observed

Reference: patent publication US20240082392A1, “USE OF SYNTHETIC PEPTIDE FOR THE INDUCTION OF ANTITUMOR AND ANTIVIRAL IMMUNITY” (CENTRO DE INGENIERÍA GENÉTICA Y BIOTECNOLOGÍA, priority 2020, published 2024)
